Experimental data as given in patent publication US4201790A, “Benzophenone derivatives” (May & Baker Limited, priority 1975, dated 1980).

Tests used:
[1] = test system: β-adrenoceptors in the heart; assay: Test I. β-Adrenoceptor blocking activity in the anaesthetised cat (intravenous), cardiac (isoprenaline tachycardia); type: in vivo; conditions: hydrochloride salts, isoprenaline 210 seconds after test compound
Description: (§1) Test I. β-Adrenoceptor blocking activity in the anaesthetised cat (intravenous administration).
(§2) Cats were anaesthetised with a mixture of pentobarbitone (6-12 mg./kg.) and chloralose suspension (80 mg./kg.) administered intraperitoneally. The heart rate was recorded from the E.C.G. or from the pulse, and blood pressure was recorded from the carotid artery. Whole (0.3-0.6 μg.) and half (0.15-0.3 μg.) doses of isoprenaline were then administered, intravenously via the jugular vein, alternately at 7 minute intervals over a period of several hours. 210 seconds after a half dose of isoprenaline, one of the compounds under test was administered intravenously. 210 seconds later the whole dose of isoprenaline was administered. The doses of the test compound required to reduce (1) the tachycardia and (2) the fall in diastolic blood pressure produced by the whole dose of isoprenaline to that produced by the half dose were determined. The former response gives a measure of the ability of the test compound to block β-adrenoceptors in the heart while the latter response gives a measure of the ability of the test compound to block the β-adrenoceptors mediating vasodilation.
(§3) Those hydrochloride salts of compounds A, G, H and J were dissolved in water and administered in aqueous solution. Compounds B, C, D, E, F and I were each dissolved in dilute aqueous hydrochloric acid solution (0.1 N) and the solution thus obtained was neutralised by treatment with aqueous sodium hydroxide solution (0.1 N), to give a neutral solution of the hydrochloride salt of the test compound suitable for administration.

[2] = test system: β-adrenoceptors in the heart; assay: Test II. β-Adrenoceptor blocking activity in the anaesthetised rhesus monkey (intravenous), cardiac; type: in vivo; conditions: i.v., hydrochloride salt
Description: as §2
(§4) Test II. β-Adrenoceptor blocking activity in the anaesthetised rhesus monkey and in the anaesthetised dog (intravenous administration)
(§5) Test compound A (hydrochloride salt) was tested intravenously in anaesthetised rhesus monkeys and dogs by proceeding in a similar fashion to that described above in Test I.

[3] = test system: β-adrenoceptors mediating vasodilation; assay: Test II. β-Adrenoceptor blocking activity in the anaesthetised rhesus monkey (intravenous), vascular; type: in vivo; conditions: i.v., hydrochloride salt
Description: as §2, §4, §5

[4] = Acute toxicity, mouse, intravenous; conditions: in vivo, read-out: i.v. LD80
[5] = Toxicity, rat, oral, two weeks; type: in vivo; conditions: oral daily doses of 12, 24, 48 or 96 mg./kg. during two weeks
[6] = test system: β-adrenoceptors mediating vasodilation; assay: Test I. β-Adrenoceptor blocking activity in the anaesthetised cat (intravenous), vascular (isoprenaline fall in diastolic blood pressure); type: in vivo; conditions: for i.v. Dose Vascular (dose required to reduce fall in diastolic blood pressure produced by whole dose of isoprenaline to that produced by half dose): hydrochloride salts, isoprenaline 210 seconds after test compound; for Ratio cardiac dose / vascular dose: i.v.
Description: as §1, §2, §3

[7] = Toxicity, dog, oral, two weeks; type: in vivo, dog (beagle); conditions: beagles, oral daily doses of 10, 50 or 100 mg./kg. during two weeks
Description: Two groups, each of two males and two females, each received a daily dose of 10 or 50 mg./kg. animal body weight and one group, of one male and one female, received a daily dose of 100 mg./kg. animal body weight.

[8] = test system: β-adrenoceptors in the heart; assay: Test II. β-Adrenoceptor blocking activity in the anaesthetised dog (intravenous), cardiac; type: in vivo; conditions: i.v., hydrochloride salt
Description: as §2, §4, §5

[9] = test system: β-adrenoceptors mediating vasodilation; assay: Test III. β-Adrenoceptor blocking activity in the anaesthetised dog (oral), vascular; type: in vivo; conditions: hydrochloride salt
Description: as §2
(§6) Test III. β-Adrenoceptor blocking activity in the anaesthetised dog (oral administration)
(§7) Test compound A(hydrochloride salt) was tested orally in anaesthetised dogs by proceeding in a similar fashion to that described above in Test I and Test II. The results are expressed below in Table III.

[10] = test system: β-adrenoceptors mediating vasodilation; assay: Test II. β-Adrenoceptor blocking activity in the anaesthetised dog (intravenous), vascular; type: in vivo; conditions: i.v., hydrochloride salt
Description: as §2, §4, §5

[11] = test system: β-adrenoceptors in the heart; assay: Test III. β-Adrenoceptor blocking activity in the anaesthetised dog (oral), cardiac; type: in vivo; conditions: hydrochloride salt
Description: as §2, §6, §7

[12] = Acute toxicity, mouse, oral; conditions: in vivo

Row | Structure (SMILES) | i.v. Dose Cardiac (dose required to reduce tachycardia produced by whole dose of isoprenaline to that produced by half dose) [1] | LD50 [4] | i.v. Dose Vascular (dose required to reduce fall in diastolic blood pressure produced by whole dose of isoprenaline to that produced by half dose) [6] | Ratio cardiac dose / vascular dose [6] | further results
1 | Cc1cc(C)c(C(=O)c2ccccc2)c(OCC(O)CNC(C)C)c1 (racemic) [Compound A, DL-1-(2-benzoyl-3,5-dimethylphenoxy)-2-hydroxy-3-isopropylaminopropane] | 1.1 mg./kg. animal body weight | 40 mg/kg | 0.023 mg./kg. animal body weight | 48 | Dose cardiac ([2]; 210 second interval after dose): 0.1 mg./kg. animal body weight; Dose cardiac ([2]; one hour interval after dose): > 1 mg./kg. animal body weight; Dose vascular ([3]; 210 second interval after dose): 0.0087 mg./kg. animal body weight; Dose vascular ([3]; one hour interval after dose): 0.0076 mg./kg. animal body weight; tolerability [5]: well tolerated; tolerability [7]: well tolerated; Dose cardiac ([8]; 210 second interval after dose): 0.1 mg./kg. animal body weight; Dose cardiac ([8]; one hour interval after dose): 0.13 mg./kg. animal body weight; Oral dose vascular ([9]; 1 hour after dose): < 0.1 mg./kg. animal body weight; Oral dose vascular ([9]; 2 hours after dose): 0.08 mg./kg. animal body weight; Oral dose vascular ([9]; 3 hours after dose): 0.1 mg./kg. animal body weight; Dose vascular ([10]; 210 second interval after dose): < 0.02 mg./kg. animal body weight; Dose vascular ([10]; one hour interval after dose): < 0.02 mg./kg. animal body weight; Oral dose cardiac ([11]; 1 hour after dose): 4 mg./kg. animal body weight; Oral dose cardiac ([11]; 2 hours after dose): 3.2 mg./kg. animal body weight; Oral dose cardiac ([11]; 3 hours after dose): 6 mg./kg. animal body weight
2 | Cc1ccc(C(=O)c2c(C)cc(C)cc2OCC(O)CNC(C)(C)C)cc1 (racemic) [Compound I, DL-1-t-butylamino-3-(3,5-dimethyl-2-p-toluoylphenoxy)-2-hydroxypropane] | 0.46 mg./kg. animal body weight | 24 mg/kg | 0.027 mg./kg. animal body weight | 17 | –
3 | Cc1ccc(C)c(C(=O)c2ccccc2)c1OCC(O)CNC(C)C (racemic) [G, DL-1-(2-benzoyl-3,6-dimethylphenoxy)-2-hydroxy-3-isopropylaminopropane] | 7.1 mg./kg. animal body weight | – | 4.2 mg./kg. animal body weight | 1.7 | –
4 | Cc1ccc(C(=O)c2c(C)cc(C)cc2OCC(O)CNC(C)C)cc1 (racemic) [B, DL-1-(3,5-dimethyl-2-p-toluoylphenoxy)-2-hydroxy-3-isopropylaminopropane] | 2.9 mg./kg. animal body weight | 25 to 31 mg/kg | 0.031 mg./kg. animal body weight | 93.5 | LD50 [12]: ~1000 mg/kg
5 | Cc1ccc(C(=O)c2c(C)cc(C)cc2OCC(O)CNCCc2ccccc2)cc1 (racemic) [Compound J, DL-1-(3,5-dimethyl-2-p-toluoylphenoxy)-2-hydroxy-3-(2-phenylethylamino)propane] | ~2.0 mg./kg. animal body weight | – | 0.068 mg./kg. animal body weight | 29 | –
6 | Cc1cc(C)c(C(=O)c2ccccc2C)c(OCC(O)CNC(C)C)c1 (racemic) [D, DL-1-(3,5-dimethyl-2-o-toluoylphenoxy)-2-hydroxy-3-isopropylaminopropane] | 0.8 mg./kg. animal body weight | 34 mg/kg | 0.16 mg./kg. animal body weight | 5.0 | –
7 | Cc1cc(C)c(C(=O)c2ccccc2)c(OCC(O)CNC(C)C)c1C (racemic) [Compound C, DL-1-(2-benzoyl-3,5,6-trimethylphenoxy)-2-hydroxy-3-isopropylaminopropane] | 4.4 mg./kg. animal body weight | 23 mg/kg | 2.3 mg./kg. animal body weight | 1.9 | –
8 | Cc1cc(C)c(C(=O)c2c(C)cccc2C)c(OCC(O)CNC(C)C)c1 (racemic) [E, DL-1-[2-(2,6-dimethylbenzoyl)-3,5-dimethylphenoxy]-2-hydroxy-3-isopropylaminopropane] | 3.7 mg./kg. animal body weight | 42 mg/kg | 1.8 mg./kg. animal body weight | 2.1 | –
9 | Cc1cc(C)c(C(=O)c2ccc(Cl)cc2)c(OCC(O)CNC(C)C)c1 (racemic) [H, DL-1-(2-p-chlorobenzoyl-3,5-dimethylphenoxy)-2-hydroxy-3-isopropylaminopropane] | 0.72 mg./kg. animal body weight | 32 to 40 mg/kg | 0.037 mg./kg. animal body weight | 19 | –
10 | Cc1ccc(C(=O)c2c(C)cc(C)cc2OCC(O)CNC(C)C)c(C)c1 (racemic) [F, DL-1-[2-(2,4-dimethylbenzoyl)-3,5-dimethylphenoxy]-2-hydroxy-3-isopropylaminopropane] | 0.59 mg./kg. animal body weight | 24 mg/kg | 0.24 mg./kg. animal body weight | 2.5 | –
